# In PubChem BioAssay AID1963867 (Molecular Pharmacology Branch, DTP, NCI, 2024):
# Activity calls are given as the source filed them. Rule for the calls: active = viability on the fitted dose curve at most 10% of control; inactive = the rest.
# Tested on: KRAS-mutant PDC tumor spheroid with HUVEC/MSC, viability
# Assay: Anticancer human tumor 327498-153-R-J2-PDC patient-derived uterine carcinosarcoma cell line growth inhibition [KRAS2]
# Settings: for viability, T/C: stronger effect = lower value
# Method in brief: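 KRAS-mutant tumor cells were grown as spheroids with HUVEC endothelial cells and human MSCs as stroma. Targeted agents were tested alone and with KRAS pathway inhibitors. Doses started at or near clinical Cmax, or 10 microM, descending half-log.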
# [1] = curve of first compound, second compound 0.1 µM
# [2] = curve of first compound, second compound 0.316 µM
# [3] = curve of first compound, second compound 1 µM
# [4] = curve of first compound, second compound 3.16 µM
# [5] = curve of first compound, second compound 10 µM
# [6] = second compound 0.1 µM, first compound 0.0316 µM
# [7] = second compound 0.1 µM, first compound 0.1 µM
# [8] = second compound 0.316 µM, first compound 0.0316 µM
# [9] = second compound 0.316 µM, first compound 0.1 µM
# [10] = second compound 1 µM, first compound 0.0316 µM
# [11] = second compound 1 µM, first compound 0.1 µM
# [12] = second compound 3.16 µM, first compound 0.0316 µM
# [13] = second compound 3.16 µM, first compound 0.1 µM
# [14] = second compound 10 µM, first compound 0.0316 µM
# [15] = second compound 10 µM, first compound 0.1 µM
# 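Throughout, for IC50: spheroids exposed to agents for seven days before reading.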
# 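Throughout, for viability, T/C: spheroids exposed to agents for seven days before reading; 100% = DMSO vehicle wells so lower means fewer viable cells.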
smiles,measurement,setting,value
CN(C)C/C=C/C(=O)Nc1cc2c(Nc3ccc(F)c(Cl)c3)ncnc2cc1O[C@H]1CCOC1 + CC1OCC2(CCN(c3cnc(Sc4ccnc(N)c4Cl)c(N)n3)CC2)C1N,IC50,[1],> 100 nM
same,IC50,[2],> 100 nM
same,IC50,[3],> 100 nM
same,IC50,[4],< 0.316 nM
same,IC50,[5],0.428 nM
same,"viability, T/C","second compound 0.1 µM, first compound 0.000316 µM",75.6%
same,"viability, T/C","second compound 0.1 µM, first compound 0.001 µM",82%
same,"viability, T/C","second compound 0.1 µM, first compound 0.00316 µM",71%
same,"viability, T/C","second compound 0.1 µM, first compound 0.01 µM",71%
same,"viability, T/C",[6],69.3%
same,"viability, T/C",[7],56.4%
same,"viability, T/C","second compound 0.316 µM, first compound 0.000316 µM",62.8%
same,"viability, T/C","second compound 0.316 µM, first compound 0.001 µM",60.4%
same,"viability, T/C","second compound 0.316 µM, first compound 0.00316 µM",53.5%
same,"viability, T/C","second compound 0.316 µM, first compound 0.01 µM",53.1%
same,"viability, T/C",[8],51.2%
same,"viability, T/C",[9],53%
same,"viability, T/C","second compound 1 µM, first compound 0.000316 µM",106%
same,"viability, T/C","second compound 1 µM, first compound 0.001 µM",109%
same,"viability, T/C","second compound 1 µM, first compound 0.00316 µM",103%
same,"viability, T/C","second compound 1 µM, first compound 0.01 µM",104%
same,"viability, T/C",[10],99%
same,"viability, T/C",[11],91.7%
same,"viability, T/C","second compound 3.16 µM, first compound 0.000316 µM",44%
same,"viability, T/C","second compound 3.16 µM, first compound 0.001 µM",42.1%
same,"viability, T/C","second compound 3.16 µM, first compound 0.00316 µM",37%
same,"viability, T/C","second compound 3.16 µM, first compound 0.01 µM",40.7%
same,"viability, T/C",[12],32.7%
same,"viability, T/C",[13],31.9%
same,outcome,"second compound 10 µM, first compound 0.000316 µM",inactive
same,outcome,"second compound 10 µM, first compound 0.001 µM",inactive
same,"viability, T/C","second compound 10 µM, first compound 0.00316 µM",44%
same,outcome,"second compound 10 µM, first compound 0.01 µM",inactive
same,"viability, T/C",[14],37.3%
same,"viability, T/C",[15],33.5%
CCNC(=O)CC1N=C(c2ccc(Cl)cc2)c2cc(OC)ccc2-n2c(C)nnc21 (stereo unspecified),"viability, T/C",compound 0.0316 µM,102% [middle of 5 runs]
same,"viability, T/C",compound 0.1 µM,95.9% [middle of 5 runs]
same,"viability, T/C",compound 0.316 µM,77.6% [middle of 5 runs]
same,"viability, T/C",compound 1 µM,64.8% [middle of 5 runs]
CC(C)NCC(C(=O)N1CCN(c2ncnc3c2C(C)CC3O)CC1)c1ccc(Cl)cc1 (stereo unspecified) + C=CC(=O)N1CCN(c2nc(=O)n(-c3c(C)ccnc3C(C)C)c3nc(-c4c(O)cccc4F)c(F)cc23)C(C)C1,IC50,[1],41.8 nM
same,IC50,[2],< 31.6 nM
same,IC50,[3],< 31.6 nM
same,IC50,[4],< 31.6 nM
same,IC50,[5],< 31.6 nM
same,"viability, T/C",[6],54.5%
same,"viability, T/C",[7],36.3%
same,"viability, T/C","second compound 0.1 µM, first compound 0.316 µM",22.2%
same,"viability, T/C","second compound 0.1 µM, first compound 1 µM",15.3%
same,"viability, T/C","second compound 0.1 µM, first compound 3.16 µM",11.2%
same,"viability, T/C","second compound 0.1 µM, first compound 10 µM",9.06%
same,"viability, T/C",[8],46.5%
same,"viability, T/C",[9],32.4%
same,"viability, T/C","second compound 0.316 µM, first compound 0.316 µM",15.7%
same,"viability, T/C","second compound 0.316 µM, first compound 1 µM",13.5%
same,"viability, T/C","second compound 0.316 µM, first compound 3.16 µM",11%
same,"viability, T/C","second compound 0.316 µM, first compound 10 µM",7.87%
same,"viability, T/C",[10],48.2%
same,"viability, T/C",[11],29.6%
same,"viability, T/C","second compound 1 µM, first compound 0.316 µM",19.9%
same,"viability, T/C","second compound 1 µM, first compound 1 µM",13.5%
same,"viability, T/C","second compound 1 µM, first compound 3.16 µM",10.4%
same,"viability, T/C","second compound 1 µM, first compound 10 µM",7.77%
same,"viability, T/C",[12],39.5%
same,"viability, T/C",[13],27.3%
same,"viability, T/C","second compound 3.16 µM, first compound 0.316 µM",17.8%
same,"viability, T/C","second compound 3.16 µM, first compound 1 µM",12.2%
same,"viability, T/C","second compound 3.16 µM, first compound 3.16 µM",9.99%
same,"viability, T/C","second compound 3.16 µM, first compound 10 µM",8.2%
same,"viability, T/C",[14],33.5%
same,"viability, T/C",[15],18.2%
same,"viability, T/C","second compound 10 µM, first compound 0.316 µM",14.6%
same,"viability, T/C","second compound 10 µM, first compound 1 µM",9.84%
same,"viability, T/C","second compound 10 µM, first compound 3.16 µM",9.14%
same,"viability, T/C","second compound 10 µM, first compound 10 µM",3.03%
CC1(C)CCC(CN2CCN(c3ccc(C(=O)NS(=O)(=O)c4ccc(NCC5CCOCC5)c([N+](=O)[O-])c4)c(Oc4cnc5[nH]ccc5c4)c3)CC2)=C(c2ccc(Cl)cc2)C1,"viability, T/C",compound 0.0316 µM,101% [middle of 5 runs]
same,"viability, T/C",compound 0.1 µM,98.9% [middle of 5 runs]
same,"viability, T/C",compound 0.316 µM,99.3% [middle of 5 runs]
same,"viability, T/C",compound 1 µM,97.8% [middle of 5 runs]
same,"viability, T/C",compound 3.16 µM,74.3% [middle of 5 runs]
same,"viability, T/C",compound 10 µM,15.3% [middle of 5 runs]
same,IC50,curve of compound,4.81 µM [middle of 5 runs]
